The test system of series [1] is kidney norepinephrine (NE). On the set-up: species or system porcine. To be noted: pig, in vivo.
The subject of series [2] is renal arteries. The conditions noted are these: pig, in vivo.
The test system of series [3] is sympathetic neurons. To be noted: cited from earlier work.

With “Guanidine, [2-(hexahydro-1(2H)-azocinyl)ethyl]-, sulfate (1:1) [Guanethidine monosulfate]”, in series [1], the “average NE level in renal cortex tissue” value came to 64 and the “reduction in renal cortex NE” value was 86%. Moreover, the “perivascular indications of denervation (histology)” value in series [2] is “nerve degeneration characterized by hypervacuolization and eosinophilia”.
With `N=C(N)NCCN1CCCCCCC1` [guanethidine, Guanidine, [2-(hexahydro-1(2H)-azocinyl)ethyl]-], in series [3], the “concentration accumulated within neurons in vivo” value was 500 to 1000 µM.

These data come from patent US9011879B2 (priority 2009, dated 2015).
